The target in one experiment is T1, human kinase Mps-1 (Homo sapiens, UniProt P33981).
T1 construct: N-terminally GST-tagged human full length recombinant Mps-1 kinase; GST (N); purchased Invitrogen, Karslruhe, Germany PV4071
T1 sequence (P33981 1-857): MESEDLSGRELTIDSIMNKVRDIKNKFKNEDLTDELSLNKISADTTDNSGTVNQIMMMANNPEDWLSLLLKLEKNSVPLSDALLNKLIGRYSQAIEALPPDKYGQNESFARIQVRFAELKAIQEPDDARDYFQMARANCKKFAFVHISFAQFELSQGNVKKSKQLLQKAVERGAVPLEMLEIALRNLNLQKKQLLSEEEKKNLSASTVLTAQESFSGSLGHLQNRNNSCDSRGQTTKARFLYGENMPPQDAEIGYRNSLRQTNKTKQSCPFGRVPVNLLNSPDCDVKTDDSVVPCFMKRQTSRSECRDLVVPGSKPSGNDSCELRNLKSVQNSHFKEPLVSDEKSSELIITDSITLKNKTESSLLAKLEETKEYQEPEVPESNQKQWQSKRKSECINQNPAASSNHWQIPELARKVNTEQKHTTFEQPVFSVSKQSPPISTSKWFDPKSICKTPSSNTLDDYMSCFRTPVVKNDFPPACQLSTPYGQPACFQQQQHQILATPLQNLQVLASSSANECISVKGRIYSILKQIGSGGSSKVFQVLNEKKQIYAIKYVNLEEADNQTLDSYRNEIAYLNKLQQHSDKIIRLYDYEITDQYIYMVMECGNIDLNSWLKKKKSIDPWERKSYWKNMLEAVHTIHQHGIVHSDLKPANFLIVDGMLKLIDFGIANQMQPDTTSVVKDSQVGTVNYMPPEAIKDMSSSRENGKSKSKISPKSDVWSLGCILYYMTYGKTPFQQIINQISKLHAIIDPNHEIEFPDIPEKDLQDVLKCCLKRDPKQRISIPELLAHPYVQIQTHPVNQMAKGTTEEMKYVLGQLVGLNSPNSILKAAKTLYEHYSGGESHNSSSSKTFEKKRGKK
Put plainly: Mps-1 kinase assay (TR-FRET). Particulars: Mps1 IC50 [nM], N-terminally GST-tagged human full length recombinant Mps-1; 10 μM ATP; 1 μM biotinylated peptide substrate; 60 min at 22° C. The class given is biochemical. On the technique in general: In TR-FRET formats the signal depends on donor and acceptor labels being close together.
Consider `Cc1cc(-c2cnc3c(NCC(C)C)nccn23)cc(C)c1C(=O)NC1CC1` [Example 1-2, N-cyclopropyl-2,6-dimethyl-4-{8-[(2-methylpropyl)amino]imi-dazo[1,2-a]pyrazin-3-yl}benzamide], for which the concentration for half-maximal inhibition (IC50) (commonly the concentration that inhibits the measured activity by half) stood at 1230 nM.
With `CC(C)CNc1nccn2c(-c3ccc(C(=O)NC4CC4)cc3F)cnc12` [Example 1-3, N-cyclopropyl-3-fluoro-4-{8-[(2-methylpropyl)amino]imi-dazo[1,2-a]pyrazin-3-yl}benzamide], the half-maximal inhibitory concentration (IC50) is 9 nM.
On the same count and under the same terms, next, `CC(C)CNc1nccn2c(-c3ccc(C(=O)NC4CC4)c(F)c3)cnc12` [Example 1-4, N-cyclopropyl-2-fluoro-4-{8-[(2-methylpropyl)amino]imi-dazo[1,2-a]pyrazin-3-yl}benzamide]: 34 nM; `O=C(NC1CC1)c1ccc(-c2cnc3c(NCc4ccccc4F)nccn23)cc1` [Example 4-3, N-cyclopropyl-4-{8-[(2-fluorobenzyl)amino]imi-dazo[1,2-a]pyrazin-3-yl}benzamide]: 11 nM; `O=C(NC1CC1)c1ccc(-c2cnc3c(NCc4ccn[nH]4)nccn23)cc1` [Example 4-4, N-cyclopropyl-4-{8-[(1H-pyrazol-5-ylmethyl)amino]imi-dazo[1,2-a]pyrazin-3-yl}benzamide]: 69.8 nM.
Same read-out and setting: next, `COc1ccccc1CNc1nccn2c(-c3ccc(C(=O)NC4CC4)cc3)cnc12` [Example 4-8, N-cyclopropyl-4-{8-[(2-methoxybenzyl)amino]imi-dazo[1,2-a]pyrazin-3-yl}benzamide]: 85.5 nM; `Cc1cc(-c2cnc3c(NCc4ccccc4O)nccn23)ccc1C(=O)NC1CC1` [Example 5-2, N-cyclopropyl-4-{8-[(2-hydroxybenzyl)amino]imi-dazo[1,2-a]pyrazin-3-yl}-2-methylbenzamide]: 24.4 nM; `Cc1cc(-c2cnc3c(NCc4ccn[nH]4)nccn23)ccc1C(=O)NC1CC1` [Example 5-3, N-cyclopropyl-2-methyl-4-{8-[(1H-pyrazol-5-ylmethyl)amino]imi-dazo[1,2-a]pyrazin-3-yl}benzamide]: 86.7 nM.
The same measure, in the same setting: next, `Cc1cc(-c2cnc3c(NCc4ccccc4Cl)nccn23)ccc1C(=O)NC1CC1` [Example 5-4, 4-{8-[(2-chlorobenzyl)amino]imi-dazo[1,2-a]pyrazin-3-yl}-N-cyclopropyl-2-methylbenzamide]: 18.8 nM.
As for `Cc1cc(-c2cnc3c(NCc4ccnn4C)nccn23)ccc1C(=O)NC1CC1` [Example 5-5, N-cyclopropyl-2-methyl-4-(8-{[(1-methyl-1H-pyrazol-5-yl)methyl]amino}imi-dazo[1,2-a]pyrazin-3-yl)benzamide], the IC50 turned out to be 67 nM.
As to `COCCNc1nccn2c(-c3ccc(C(=O)NC4CC4)cc3)cnc12` [Example 7-2, N-cyclopropyl-4-{8-[(2-methoxyethyl)amino]imi-dazo[1,2-a]pyrazin-3-yl}benzamide], the IC50 amounted to 272 nM.
Still for that read-out and setting: the value for `COCCCNc1nccn2c(-c3ccc(C(=O)NC4CC4)cc3)cnc12` [Example 7-3, N-cyclopropyl-4-{8-[(3-methoxypropyl)amino]imi-dazo[1,2-a]pyrazin-3-yl}benzamide] was 95.8 nM; that for `O=C(NC1CC1)c1ccc(-c2cnc3c(NCCCN4CCOCC4)nccn23)cc1` [Example 7-5, N-cyclopropyl-4-(8-{[3-(morpholin-4-yl)propyl]amino}imi-dazo[1,2-a]pyrazin-3-yl)benzamide] was 328 nM.
Still for that read-out and setting: the value for `O=C(NC1CC1)c1ccc(-c2cnc3c(NCCc4ccccc4)nccn23)cc1` [Example 7-9, N-cyclopropyl-4-{8-[(2-phenylethyl)amino]imi-dazo[1,2-a]pyrazin-3-yl}benzamide] was 47.7 nM.

Still in this experiment, the particulars now being: N-terminally GST-tagged human full length recombinant Mps-1; 10 μM ATP; 1 μM biotinylated peptide substrate; 60 min at 22° C.; read-out: Mps1 IC50.
Take “2-chloro-N-cyclopropyl-4- {8-[(2- sulfamoylethyl)amino]imi- dazo[1,2-a]pyrazin-3- yl}benzamide [Example 7-67]”: the 50% inhibitory concentration (IC50) stood at 250 nM.
With “4-{8-[(3-amino-3- oxopropyl)amino]imi- dazo[1,2-a]pyrazin-3-yl}-N- cyclopropylbenzamide [Example 7-25]”, the concentration for half-maximal inhibition (IC50) was 1190 nM.
Consider `Cc1cc(C(=O)NC2CC2)ccc1-c1cnc2c(NCC(C)C)nccn12` [Example 1-1, N-cyclopropyl-3-methyl-4-{8-[(2-methylpropyl)amino]imidazo[1,2-a]pyrazin-3-yl}benzamide], for which the IC50 stood at 52.4 nM.
As to `O=C(NC1CC1)c1ccc(-c2cnc3c(NCCCO)nccn23)cc1` [Example 3-1, N-cyclopropyl-4-[8-[(3-hydroxypropyl)amino]imidazo[1,2-a]pyrazin-3-yl]benzamide], the IC50 was 54.5 nM.
Same read-out and setting: next, `CC(C)(O)CNc1nccn2c(-c3ccc(C(=O)NC4CC4)cc3)cnc12` [Example 3-2, N-cyclopropyl-4-{8-[(2-hydroxy-2-methylpropyl)amino]imidazo[1,2-a]pyrazin-3-yl}benzamide]: 92.7 nM; `NCCCNc1nccn2c(-c3ccc(C(=O)NC4CC4)c(Cl)c3)cnc12` [Example 3-3, 4-{8-[(3-Aminopropyl)amino]imidazo[1,2-a]pyrazin-3-yl}-2-chloro-N-cyclopropylbenzamide]: 2500 nM; `COc1cc(C(=O)NC2CC2)ccc1-c1cnc2c(NCCCN)nccn12` [Example 3-4, 4-{8-[(3-Aminopropyl)amino]imidazo[1,2-a]pyrazin-3-yl}-N-cyclopropyl-3-methoxybenzamide]: 421 nM.
The same measure, in the same setting: next, `CS(=O)(=O)CCNc1nccn2c(-c3ccc(C(=O)NC4CC4)cc3)cnc12` [Example 4-1, N-cyclopropyl-4-(8-{[2-(methylsulfonyl)ethyl]amino}imidazo[1,2-a]pyrazin-3-yl)benzamide]: 17.2 nM.
Still for that read-out and setting: the value for `CS(=O)(=O)CCCNc1nccn2c(-c3ccc(C(=O)NC4CC4)cc3)cnc12` [Example 4-2, N-cyclopropyl-4-(8-{[3-(methylsulfonyl)propyl]amino}imidazo[1,2-a]pyrazin-3-yl)benzamide] was 87.4 nM; that for `COC(=O)CCCNc1nccn2c(-c3ccc(C(=O)NC4CC4)cc3)cnc12` [Example 4-5, methyl 4-({3-[4-(cyclopropylcarbamoyl)phen-yl]imidazo[1,2-a]pyrazin-8-yl}amino)butanoate] was 103 nM.
With `COC(=O)CCNc1nccn2c(-c3ccc(C(=O)NC4CC4)cc3)cnc12` [Example 4-6, methyl N-{3-[4-(cyclopropylcarbamoyl)phen-yl]imidazo[1,2-a]pyrazin-8-yl}-beta-alaninate], the IC50 is 74.9 nM.
Take `CCCCNc1nccn2c(-c3ccc(C(=O)NC4CC4)cc3)cnc12` [Example 4-7, 4-[8-(butylamino)imidazo[1,2-a]pyrazin-3-yl]-N-cyclopropylbenzamide]: the IC50 came out at 37.2 nM.
On the same count and under the same terms, next, `Cc1cc(-c2cnc3c(NCCCS(C)(=O)=O)nccn23)ccc1C(=O)NC1CC1` [Example 5-1, N-cyclopropyl-2-methyl-4-(8-{[3-(methylsulfonyl)propyl]amino}imidazo[1,2-a]pyrazin-3-yl)benzamide]: 278 nM.
On the same count and under the same terms, the value for `CC(C)CNc1nccn2c(-c3ccc(C(=O)NC4CC4)c(Cl)c3)cnc12` [Example 6-1, 2-chloro-N-cyclopropyl-4-{8-[(2-methylpropyl)amino]imidazo[1,2-a]pyrazin-3-yl}benzamide] was 28 nM; that for `CCCCCNc1nccn2c(-c3ccc(C(=O)NC4CC4)cc3)cnc12` [Example 7-1, N-cyclopropyl-4-[8-(pentylamino)imidazo[1,2-a]pyrazin-3-yl]benzamide] was 22.5 nM; that for `O=C(NC1CC1)c1ccc(-c2cnc3c(NCCN4CCOCC4)nccn23)cc1` [Example 7-4, N-cyclopropyl-4-(8-{[2-(morpholin-4-yl)ethyl]amino}imidazo[1,2-a]pyrazin-3-yl)benzamide] was 341 nM.
Regarding `CN(C)CCCNc1nccn2c(-c3ccc(C(=O)NC4CC4)cc3)cnc12` [Example 7-6, N-cyclopropyl-4-(8-{[3-(dimethylamino)propyl]ami-nono}imidazo[1,2-a]pyrazin-3-yl)benzamide], the IC50 worked out at 1260 nM.
The same measure, in the same setting: next, `CN(C)CCNc1nccn2c(-c3ccc(C(=O)NC4CC4)cc3)cnc12` [Example 7-7, N-cyclopropyl-4-(8-{[2-(dimethylamino)ethyl]ami-no}imidazo[1,2-a]pyrazin-3-yl)benzamide]: 4050 nM; `O=C(NC1CC1)c1ccc(-c2cnc3c(NCCN4CCCCC4)nccn23)cc1` [Example 7-8, N-cyclopropyl-4-(8-{[2-(piperidin-1-yl)ethyl]amino}imidazo[1,2-a]pyrazin-3-yl)benzamide]: 1950 nM.

These data come from patent publication US20130303532A1, “IMIDAZOPYRAZINES FOR USE AS MPS-1 AND TKK INHIBITORS IN THE TREATMENT HYPERPROLIFERATIVE DISORDERS” (BAYER INTELLECTUAL PROPERTY GmbH, priority 2010, published 2013).
